The record followed here is ChEMBL document CHEMBL3421609, “Sandensone A, a novel sesquiterpenoid from the Formosan soft coral Sinularia sandensis” (2015).

Active and inactive are the calls of the source. The rule behind the calls is not given here.

The subject of assay [1] is A549. The assay is described as follows: Cytotoxicity against human A549 cells by MTT assay. It is filed as functional. Conditions: read-out: ED50 (the source's name).
Assay [2] relates to HT-29. Briefly: Cytotoxicity against human HT-29 cells by MTT assay. It is filed as functional. The conditions noted are these: read-out: ED50 (the source's name).
The test system of assay [3] is P388. The assay is described as follows: Cytotoxicity against mouse P388 cells by MTT assay. The conditions noted are these: read-out: ED50 (the source's name). It is filed as functional.
Assay [4] relates to Human betaherpesvirus 5. The assay is described as follows: Antiviral activity against human cytomegalovirus infected in HEL cells assessed as reduction in virus replication at 1 ug/ml. It is filed as functional, organism-based.
For assay [5], the system named is Human betaherpesvirus 5. The assay is described as follows: Antiviral activity against human cytomegalovirus infected in HEL cells assessed as reduction in virus replication. It is filed as functional. The conditions noted are these: Human betaherpesvirus 5, HEL; read-out: ED50 (the source's name).

Take `CO[C@H](C(=O)[C@@H](O)[C@@H](C)O)[C@@H]1Cc2cc3cc(O[C@H]4C[C@@H](O[C@@H]5C[C@@H](O)[C@H](O)[C@@H](C)O5)[C@H](O)[C@@H](C)O4)c(C)c(O)c3c(O)c2C(=O)[C@H]1O[C@H]1C[C@@H](O[C@@H]2C[C@@H](O)[C@@H](O[C@@H]3C[C@](C)(O)[C@H](O)[C@@H](C)O3)[C@@H](C)O2)[C@H](O)[C@@H](C)O1` [PLICAMYCIN]: the EC50 in assay [1] is 60 nM; in assay [2], 70 nM; in assay [3] it was 50 nM.

Turning to `C=C/C(C)=C/C/C=C(\C)[C@H]1C(=O)C=C(C)[C@@H]1O`, the outcome in assay [4] was inactive. Moreover, the EC50 in assay [5] is greater than 50 µg/mL; in assay [1] it was greater than 50000 nM; in assay [2] it was 38000 nM; in assay [3], 22000 nM.
